From patent US20020137929A1, “1 - (3-heterocyclylphenyl) isothiourea, -isourea, -guanidine and -amidine herbicidal agents” (Intellectual Property Department, BASF Aktiengesellschaft, priority 1998, published 2002)

Key:
[1] = system: ABUTH (Velvetleaf); assay: Postemergence herbicidal evaluation; type: in vivo, Abutilon theophrasti; settings: postemergence
Summary of the method: (§1)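 First, seedlings were raised for around two weeks. Next, test material in 50/50 acetone/water containing 0.5% TWEEN 20 was sprayed through a nozzle at 40 psi, equivalent to about 0.0156–0.500 kg/ha. Finally, after 4–5 weeks in the greenhouse, plants were rated 0–9.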

[2] = system: IPOHE (Morningglory, Ivyleaf); assay: Postemergence herbicidal evaluation; type: in vivo, Ipomoea hederacea; settings: postemergence
Summary of the method: as §1

[3] = system: SETVI (Foxtail, Green); assay: Postemergence herbicidal evaluation; type: in vivo, Setaria viridis; settings: postemergence
Summary of the method: as §1

[4] = system: GLXMAW (Soybean, Williams); assay: Postemergence herbicidal evaluation; type: in vivo, Glycine max, (L.) Merr. cv Williams; settings: postemergence
Summary of the method: as §1

[5] = system: ZEAMX (Corn, Field); assay: Postemergence herbicidal evaluation; type: in vivo, Zea mays; settings: postemergence
Summary of the method: as §1

[6] = system: ABUTH (Velvetleaf); assay: Preemergence herbicidal evaluation; type: in vivo, Abutilon theophrasti; settings: rated 4-5 weeks after treatment, rating scale 0-9
Summary of the method: (§2)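 Seeds were mixed with potting soil and planted on about one inch of soil, then sprayed with test compound in aqueous acetone at about 0.0156 to 0.500 kg per hectare. Plants grew under standard greenhouse care and were visually rated 0-9 against untreated controls 4-5 weeks post-treatment.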

[7] = system: AMBEL (Ragweed, Common); assay: Preemergence herbicidal evaluation; type: in vivo, Ambrosia artemisifolia; settings: rated 4-5 weeks after treatment, rating scale 0-9
Summary of the method: as §2

[8] = system: CASOB (Sicklepod); assay: Preemergence herbicidal evaluation; type: in vivo, Cassia obtusifolia; settings: rated 4-5 weeks after treatment, rating scale 0-9
Summary of the method: as §2

[9] = system: IPOHE (Morningglory, Ivyleaf); assay: Preemergence herbicidal evaluation; type: in vivo, Ipomoea hederacea; settings: rated 4-5 weeks after treatment, rating scale 0-9
Summary of the method: as §2

[10] = system: ECHCG (Barnyardgrass); assay: Preemergence herbicidal evaluation; type: in vivo, Echinochloa crus-galli; settings: rated 4-5 weeks after treatment, rating scale 0-9
Summary of the method: as §2

[11] = system: ECHORC (Watergrass (Calif.)); assay: Preemergence weed control under flooded paddy conditions; type: in vivo, Echinochloa oryzoides; settings: rated 3-4 weeks after treatment
Summary of the method: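 Flooded-pot preemergence screen with silt loam and seeds in the upper 0.5 cm. Dose about 0.0313 to 0.500 kg/ha, delivered into flood water; visual 0-9 score after 3 to 4 weeks.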

[12] = system: CYPSE (Flatsedge); assay: as above; type: in vivo, Cyperus serotinus; settings: rated 3-4 weeks after treatment
Summary of the method: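 First, seeds or propagules go into the top 0.5 cm of silt loam; next, water is held 1.5 to 3 cm over the soil; then compound (50/50 acetone/water) is pipetted into it at about 0.0313 to 0.500 kg/ha; finally plants are rated visually 0-9 after three to four weeks.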

With `Cn1c(C(F)(F)F)cc(=O)n(-c2cc(N=C3SCC(=O)N3Cc3cccnc3)c(Cl)cc2F)c1=O` [Compound 132, 3-{4-Chloro-2-fluoro-5-{[4-oxo-3-(3-pyridylmethyl)-2-thiazolidinylidene]amino}phenyl}-1-methyl-6-(trifluoromethyl)-2,4 (1H,3H)-pyrimidinedione] the “Herbicidal rating ABUTH” value ([1]; rate 0.0156 kg/ha) was 9.0, the “Herbicidal rating ABUTH” value ([1]; rate 0.0313 kg/ha) was 9.0 and the “Herbicidal rating ABUTH” value ([1]; rate 0.0625 kg/ha) was 9.0. For the same compound, the “Herbicidal rating IPOHE” value ([2]; rate 0.0156 kg/ha) was 6.0, the “Herbicidal rating IPOHE” value ([2]; rate 0.0313 kg/ha) was 9.0 and the “Herbicidal rating IPOHE” value ([2]; rate 0.0625 kg/ha) was 9.0. The “Herbicidal rating SETVI” value ([3]; rate 0.0156 kg/ha) was 1.0, the “Herbicidal rating SETVI” value ([3]; rate 0.0313 kg/ha) was 4.0 and the “Herbicidal rating SETVI” value ([3]; rate 0.0625 kg/ha) was 3.0. The “Herbicidal rating GLXMAW” value ([4]; rate 0.0156 kg/ha) was 5.0, the “Herbicidal rating GLXMAW” value ([4]; rate 0.0313 kg/ha) was 5.0 and the “Herbicidal rating GLXMAW” value ([4]; rate 0.0625 kg/ha) was 6.0. For the same compound, the “Herbicidal rating ZEAMX” value ([5]; rate 0.0156 kg/ha) was 3.5, the “Herbicidal rating ZEAMX” value ([5]; rate 0.0313 kg/ha) was 4.0 and the “Herbicidal rating ZEAMX” value ([5]; rate 0.0625 kg/ha) was 4.5. For the same compound, the “Preemergence herbicidal rating ABUTH” value ([6]; rate 0.0625 kg/ha) was 9.0, the “Preemergence herbicidal rating ABUTH” value ([6]; rate 0.1250 kg/ha) was 9.0 and the “Preemergence herbicidal rating ABUTH” value ([6]; rate 0.2500 kg/ha) was 9.0. The “Preemergence herbicidal rating AMBEL” value ([7]; rate 0.0625 kg/ha) was 0.0, the “Preemergence herbicidal rating AMBEL” value ([7]; rate 0.1250 kg/ha) was 4.0 and the “Preemergence herbicidal rating AMBEL” value ([7]; rate 0.2500 kg/ha) was 7.0. For the same compound, the “Preemergence herbicidal rating CASOB” value ([8]; rate 0.0625 kg/ha) was 0.0, the “Preemergence herbicidal rating CASOB” value ([8]; rate 0.2500 kg/ha) was 0.0 and the “Preemergence herbicidal rating IPOHE” value ([9]; rate 0.0625 kg/ha) was 0.0. For the same compound, the “Preemergence herbicidal rating IPOHE” value ([9]; rate 0.1250 kg/ha) was 0.0, the “Preemergence herbicidal rating IPOHE” value ([9]; rate 0.2500 kg/ha) was 2.0 and the “Preemergence herbicidal rating ECHCG” value ([10]; rate 0.0625 kg/ha) was 0.0. For the same compound, the “Preemergence herbicidal rating ECHCG” value ([10]; rate 0.1250 kg/ha) was 0.0, the “Preemergence herbicidal rating ECHCG” value ([10]; rate 0.2500 kg/ha) was 7.0 and the “herbicidal effect rating, ECHORC” value ([11]; 0.0313 kg/ha) was 3.0. The “herbicidal effect rating, ECHORC” value ([11]; 0.0625 kg/ha) was 4.0, the “herbicidal effect rating, ECHORC” value ([11]; 0.1250 kg/ha) was 4.0 and the “herbicidal effect rating, ECHORC” value ([11]; 0.2500 kg/ha) was 6.0. For the same compound, the “herbicidal effect rating, CYPSE” value ([12]; 0.0313 kg/ha) was 0.0, the “herbicidal effect rating, CYPSE” value ([12]; 0.0625 kg/ha) was 0.0 and the “herbicidal effect rating, CYPSE” value ([12]; 0.1250 kg/ha) was 0.0. For the same compound, the “herbicidal effect rating, CYPSE” value ([12]; 0.2500 kg/ha) was 0.0.

In the case of `Cn1c(C(F)(F)F)cc(=O)n(-c2cc(N=C3SCC(=O)N3Cc3ccncc3)c(Cl)cc2F)c1=O` [Compound 133, 3-{4-Chloro-2-fluoro-5-{[4-oxo-3-(4-pyridylmethyl)-2-thiazolidinylidene]amino}phenyl}-1-methyl-6-(trifluoromethyl)-2,4(1H,3H)-pyrimidinedione], the “Herbicidal rating ABUTH” value ([1]; rate 0.0156 kg/ha) was 9.0, the “Herbicidal rating ABUTH” value ([1]; rate 0.0313 kg/ha) was 9.0 and the “Herbicidal rating ABUTH” value ([1]; rate 0.0625 kg/ha) was 9.0. For the same compound, the “Herbicidal rating IPOHE” value ([2]; rate 0.0156 kg/ha) was 9.0, the “Herbicidal rating IPOHE” value ([2]; rate 0.0313 kg/ha) was 9.0 and the “Herbicidal rating IPOHE” value ([2]; rate 0.0625 kg/ha) was 9.0. For the same compound, the “Herbicidal rating SETVI” value ([3]; rate 0.0156 kg/ha) was 1.0, the “Herbicidal rating SETVI” value ([3]; rate 0.0313 kg/ha) was 1.0 and the “Herbicidal rating SETVI” value ([3]; rate 0.0625 kg/ha) was 2.0. The “Herbicidal rating GLXMAW” value ([4]; rate 0.0156 kg/ha) was 5.0, the “Herbicidal rating GLXMAW” value ([4]; rate 0.0313 kg/ha) was 5.0 and the “Herbicidal rating GLXMAW” value ([4]; rate 0.0625 kg/ha) was 5.0. The “Herbicidal rating ZEAMX” value ([5]; rate 0.0156 kg/ha) was 4.0, the “Herbicidal rating ZEAMX” value ([5]; rate 0.0313 kg/ha) was 4.0 and the “Herbicidal rating ZEAMX” value ([5]; rate 0.0625 kg/ha) was 4.0. For the same compound, the “Preemergence herbicidal rating ABUTH” value ([6]; rate 0.0313 kg/ha) was 0.0, the “Preemergence herbicidal rating ABUTH” value ([6]; rate 0.0625 kg/ha) was 0.0 and the “Preemergence herbicidal rating ABUTH” value ([6]; rate 0.1250 kg/ha) was 1.0. The “Preemergence herbicidal rating ABUTH” value ([6]; rate 0.2500 kg/ha) was 5.0, the “Preemergence herbicidal rating AMBEL” value ([7]; rate 0.0313 kg/ha) was 0.0 and the “Preemergence herbicidal rating AMBEL” value ([7]; rate 0.0625 kg/ha) was 0.0. The “Preemergence herbicidal rating AMBEL” value ([7]; rate 0.1250 kg/ha) was 0.0, the “Preemergence herbicidal rating AMBEL” value ([7]; rate 0.2500 kg/ha) was 1.0 and the “Preemergence herbicidal rating CASOB” value ([8]; rate 0.0313 kg/ha) was 0.0. For the same compound, the “Preemergence herbicidal rating CASOB” value ([8]; rate 0.0625 kg/ha) was 0.0, the “Preemergence herbicidal rating CASOB” value ([8]; rate 0.1250 kg/ha) was 0.0 and the “Preemergence herbicidal rating CASOB” value ([8]; rate 0.2500 kg/ha) was 9.0. The “Preemergence herbicidal rating IPOHE” value ([9]; rate 0.0313 kg/ha) was 0.0, the “Preemergence herbicidal rating IPOHE” value ([9]; rate 0.0625 kg/ha) was 0.0 and the “Preemergence herbicidal rating IPOHE” value ([9]; rate 0.1250 kg/ha) was 0.0. For the same compound, the “Preemergence herbicidal rating IPOHE” value ([9]; rate 0.2500 kg/ha) was 1.0, the “Preemergence herbicidal rating ECHCG” value ([10]; rate 0.0313 kg/ha) was 0.0 and the “Preemergence herbicidal rating ECHCG” value ([10]; rate 0.0625 kg/ha) was 0.0. The “Preemergence herbicidal rating ECHCG” value ([10]; rate 0.1250 kg/ha) was 0.0, the “Preemergence herbicidal rating ECHCG” value ([10]; rate 0.2500 kg/ha) was 0.0 and the “herbicidal effect rating, ECHORC” value ([11]; 0.0313 kg/ha) was 6.0. The “herbicidal effect rating, ECHORC” value ([11]; 0.0625 kg/ha) was 6.0, the “herbicidal effect rating, ECHORC” value ([11]; 0.1250 kg/ha) was 9.0 and the “herbicidal effect rating, ECHORC” value ([11]; 0.2500 kg/ha) was 9.0. For the same compound, the “herbicidal effect rating, CYPSE” value ([12]; 0.0313 kg/ha) was 0.0, the “herbicidal effect rating, CYPSE” value ([12]; 0.0625 kg/ha) was 0.0 and the “herbicidal effect rating, CYPSE” value ([12]; 0.1250 kg/ha) was 0.0. The “herbicidal effect rating, CYPSE” value ([12]; 0.2500 kg/ha) was 1.0.
